Test results as given in paper PMC5412285, “Characterization of Active Anthocyanin Degradation in the Petals of Rosa chinensis and Brunfelsia calycina Reveals the Effect of Gallated Catechins on Pigment Maintenance” (International Journal of Molecular Sciences, 2017).

Molecular target: T1, Brunfelsia calycina POD (purified 40-kDa anthocyanin degradation-related peroxidase; BcPrx01 suggested)
T1 construct: native POD purified from petals, close to 40 kDa
Assay: guaiacol/H2O2 peroxidase activity assay with purified POD, absorbance at […] nm
Format: biochemical, Brunfelsia pauciflora var. calycina (Brunfelsia calycina)

Row | Compound | IC50 [µM]
1 | O=C(O[C@@H]1Cc2c(O)cc(O)cc2O[C@@H]1c1ccc(O)c(O)c1)c1cc(O)c(O)c(O)c1 [ECG, epicatechin-3-gallate] | 21.5
2 | O=C(O[C@@H]1Cc2c(O)cc(O)cc2O[C@H]1c1cc(O)c(O)c(O)c1)c1cc(O)c(O)c(O)c1 [GCG, gallocatechin-3-gallate] | 29.7
